Results published in patent US9718790B2, “Triazine derivative and pharmaceutical composition having an analgesic activity comprising the same” (SHIONOGI & CO., LTD., priority 2010, dated 2017).

Each molecule was assayed against human P2X3 receptor (Homo sapiens (Human), UniProt P56373) (assay: Evaluation of human P2X3 receptor inhibitory activity (Fluo-3 calcium fluorescence, FDSS 3000, ATP stimulation)). Conditions: C6BU-1 cells stably expressing human P2X3 receptor.
Format: cell-based
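Further: stimulus was 50 nM ATP with fluorescence followed for 3 min, and the response per well was peak post-ATP fluorescence divided by the reading at measurement start.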

Chain of human P2X3 receptor (P56373 whole entry): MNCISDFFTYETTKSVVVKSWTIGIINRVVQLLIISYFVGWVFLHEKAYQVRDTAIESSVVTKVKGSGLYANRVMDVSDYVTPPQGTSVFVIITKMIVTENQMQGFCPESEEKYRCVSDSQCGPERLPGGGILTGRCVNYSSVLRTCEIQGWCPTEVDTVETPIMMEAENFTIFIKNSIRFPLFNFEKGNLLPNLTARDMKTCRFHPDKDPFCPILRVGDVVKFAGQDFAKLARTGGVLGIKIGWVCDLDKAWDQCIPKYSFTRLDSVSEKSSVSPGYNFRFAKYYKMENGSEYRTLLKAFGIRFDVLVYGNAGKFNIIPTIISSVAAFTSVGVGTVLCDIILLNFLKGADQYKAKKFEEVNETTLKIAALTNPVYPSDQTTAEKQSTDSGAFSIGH

Compared with `COc1cc(/N=c2\[nH]c(=O)n(CC(C)(C)C(=O)O)c(=O)n2Cc2ccc(C)cc2)ccc1OC(C)C` [Compound I-1280], `Cc1ccc(Cn2c(=O)n(CCC(=O)O)c(=O)[nH]/c2=N\c2ccc(OC(C)C)c(C3CC3)c2)cc1` [Compound I-1303] is 2.4-fold higher in IC50: 27 nM for the first, 66 nM for the second.

Going from `COC(=O)[C@@H](C)Cn1c(=O)[nH]/c(=N\c2ccc(OC3CCC3)cc2)n(Cc2ccc(Cl)cc2)c1=O` [Compound I-1281] to `C[C@@H](Cn1c(=O)[nH]/c(=N\c2ccc(OC3CCC3)cc2)n(Cc2ccc(Cl)cc2)c1=O)C(=O)O` [Compound I-1284], the IC50 rises from 6 nM to 15 nM (2.5-fold).

`CCOC(=O)CCn1c(=O)[nH]/c(=N\c2ccc(OC3CCC3)cc2)n(Cc2ccc(C)cc2)c1=O` [Compound I-1282] and `CCOC(=O)CCn1c(=O)[nH]/c(=N\c2ccc(OC3CCC3)cc2)n(Cc2ccc(Cl)cc2)c1=O` [Compound I-1283] are the same in IC50: 4 nM for the first, 4 nM for the second.

First: Cc1ccc(Cn2c(=O)n(CCC(=O)O)c(=O)[nH]/c2=N\c2ccc(OC3CCC3)cc2)cc1 [Compound I-1285]
Second: O=C(O)CCn1c(=O)[nH]/c(=N\c2ccc(OC3CCC3)cc2)n(Cc2ccc(Cl)cc2)c1=O [Compound I-1286]
The IC50 of the first is 1.5-fold higher: 51 nM for the first, 34 nM for the second.

`CC(C)n1c(=O)n(Cc2ccc(Cl)cc2)c(=O)n(Cc2ccc(C(F)(F)F)cc2)c1=O` [Compound I-1289, 1-(4-chlorobenzyl)-3-isopropyl-5-(4-trifluoromethylbenzyl)-1,3,5-triazinane-2,4,6-trione] and `CC(C)Oc1cccc(Cn2c(=O)n(Cc3ccc(Cl)cc3)c(=O)n(C(C)C)c2=O)c1` [Compound I-1292] are within 1.5-fold of each other in IC50: 510 nM for the first, 445 nM for the second.

`CC(C)Oc1ccc(/N=c2\[nH]c(=O)n(Cc3nnn[nH]3)c(=O)n2Cc2ccc(Cl)cc2)cc1F` [Compound I-1297] and `COC(=O)[C@@H](C)[C@@H](C)n1c(=O)[nH]/c(=N\c2ccc(OC(C)C)c(F)c2)n(Cc2ccc(C)cc2)c1=O` [Compound I-1311] are within 1.5-fold of each other in IC50: 26 nM for the first, 23 nM for the second.

First: CCOC(=O)CCn1c(=O)[nH]/c(=N\c2ccc(CC(C)C)c(F)c2)n(Cc2ccc(C)cc2)c1=O [Compound I-1298]
Second: Cc1ccc(Cn2c(=O)n(CCC(=O)O)c(=O)[nH]/c2=N\c2ccc(CC(C)C)c(F)c2)cc1 [Compound I-1299]
The IC50 of the first is 2-fold lower: 26 nM for the first, 51 nM for the second.

Compared with `CCOC(=O)CCn1c(=O)[nH]/c(=N\c2ccc(OC(C)C)c(C3CC3)c2)n(Cc2ccc(C)cc2)c1=O` [Compound I-1300], `CCOC(=O)CCn1c(=O)[nH]/c(=N\c2ccc(CC(C)C)c(OC)c2)n(Cc2ccc(Cl)cc2)c1=O` [Compound I-1308] is 1.6-fold higher in IC50: 18 nM for the first, 29 nM for the second. The first is the more potent here.

`COC(=O)[C@@H](C)Cn1c(=O)[nH]/c(=N\c2ccc(C=C(C)C)nc2)n(Cc2ccc(C)cc2)c1=O` [Compound I-1301] and `CC(C)=Cc1ccc(/N=c2\[nH]c(=O)n(C[C@H](C)C(=O)O)c(=O)n2Cc2ccc(C)cc2)cn1` [Compound I-1304] are within 1.5-fold of each other in IC50: 514 nM for the first, 574 nM for the second.

`COC(=O)[C@@H](C)Cn1c(=O)[nH]/c(=N\c2ccc(C(=O)C3CC3)cc2)n(Cc2ccc(C)cc2)c1=O` [Compound I-1302] and `Cc1ccc(Cn2c(=O)n(C[C@H](C)C(=O)O)c(=O)[nH]/c2=N\c2ccc(C(=O)C3CC3)cc2)cc1` [Compound I-1305] are within 1.5-fold of each other in IC50: 169 nM for the first, 227 nM for the second.

Compared with `CCCc1ccc(/N=c2\[nH]c(=O)n(C[C@H](C)C(=O)OC)c(=O)n2Cc2ccc(Cl)cc2)cc1OC` [Compound I-1306], `COC(=O)[C@H](C)[C@H](C)n1c(=O)[nH]/c(=N\c2ccc(OC(C)C)c(Br)c2)n(Cc2ccc(C)cc2)c1=O` [Compound I-1307] is 11-fold lower in IC50: 80 nM for the first, 7 nM for the second. The second is the more potent here.

Going from `COC(=O)[C@H](C)[C@H](C)n1c(=O)[nH]/c(=N\c2cccc(C(F)(F)F)c2)n(Cc2ccc(C)cc2)c1=O` [Compound I-1309] to `COC(=O)[C@@H](C)[C@@H](C)n1c(=O)[nH]/c(=N\c2ccc(OC(C)C)cc2)n(Cc2ccc(C)cc2)c1=O` [Compound I-1310], the IC50 rises from 21 nM to 66 nM (3.1-fold).

With `COC(=O)[C@@H](C)[C@@H](C)n1c(=O)[nH]/c(=N\c2ccc(OC(C)C)c(C)c2)n(Cc2ccc(C)cc2)c1=O` [Compound I-1312] the IC50 was 45 nM.
